The record followed here is ChEMBL document CHEMBL2407006, “Selective cytotoxic effects on human breast carcinoma of new methoxylated flavonoids from Euryops arabicus grown in Saudi Arabia” (Eur J Med Chem, 2013).

Calls of active or inactive are those of the source. The calls are words filed in the database; no cut-off is given here.

Test [1] concerns HepG2. As to the kind of experiment: Antiproliferative activity against human HepG2 cells after 48 hrs by MTT assay. It counts as functional, cell-based. To be noted: HepG2, 48 h. For orientation: Tetrazolium dyes change colour on reduction, which living cells bring about.
For test [2], the system named is WI-38. The test is described as follows: Antiproliferative activity against human WI38 cells after 48 hrs by MTT assay. As to conditions: WI-38, 48 h. It counts as functional, cell-based.
Test [3] concerns Vero. The test is described as follows: Antiproliferative activity against african green monkey Vero cells after 48 hrs by MTT assay. Format: functional, cell-based. As to conditions: Chlorocebus sabaeus.
The subject of test [4] is MCF7. The test is described as follows: Antiproliferative activity against human MCF7 cells after 48 hrs by MTT assay. Format: functional, cell-based. To be noted: MCF7, 48 h.
The subject of test [5] is PBL. As to the kind of experiment: Immunostimulant activity in PHA-stimulated human PBL assessed as lymphocyte transformation at 2 mM after 72 hrs by Giemsa staining method. Format: functional.
Test [6] can be described thus: Antioxidant activity assessed as ABTS free radical scavenging activity by spectrophotometry. Format: functional. Further details: concentration or dose not given beside the values.
Test [7] relates to MCF7. As to the kind of experiment: Cell cycle arrest in human MCF7 cells assessed as increase in pre-G apoptotic fraction at IC50 after 24 hrs by FACs analysis relative to untreated control. It counts as functional, cell-based.
In test [8] the test system is MCF7. As to the kind of experiment: Cell cycle arrest in human MCF7 cells assessed as reduction in G2/M-phase accumulation at IC50 after 24 hrs by FACs analysis relative to untreated control. Format: functional, cell-based.
The test system of test [9] is MCF7. As to the kind of experiment: Cell cycle arrest in human MCF7 cells assessed as increase in G0/G1-phase accumulation at IC50 after 24 hrs by FACs analysis (reference value: 55.6+/-0.6 %). It counts as functional.
Test [10] concerns MCF7. The test is described as follows: Cell cycle arrest in human MCF7 cells assessed as reduction in S-phase accumulation at IC50 after 24 hrs by FACs analysis (reference value: 34.1+/-1.1 %). Format: functional. Further details: scale not given: the % may be the effect or the level left.
Test [11] has as its system MCF7. As to the kind of experiment: Cell cycle arrest in human MCF7 cells assessed as increase in G0/G1-phase accumulation at IC50 after 24 hrs by FACs analysis. Format: functional, cell-based.
For test [12], the system named is MCF7. The test is described as follows: Cell cycle arrest in human MCF7 cells assessed as reduction in S-phase accumulation at IC50 after 24 hrs by FACs analysis. Format: functional, cell-based.

As to `C=C1C[C@]23CC[C@H]4C(CO)(CO)C(=O)CC[C@]4(C)[C@H]2CC[C@@H]1C3`, the concentration for half-maximal inhibition (IC50) (in general, the midpoint of a concentration-inhibition curve) in test [1] was determined as 50 µM; in test [2], 90 µM; in test [3], 90 µM; in test [4], 40 µM. Moreover, the figures for the Activity in [5] and in test [6] were 10% and 34.3%, respectively.
Regarding `COc1ccc(-c2oc3c(OC)c(OC)c(OC)c(O)c3c(=O)c2OC)cc1` [5-HYDROXYAURANETIN], the IC50 in test [1] was found to be 35 µM; in [2], 80 µM; in test [3], 90 µM; in [4] it was 30 µM. In addition, the Activity in [5] turned out to be 25%; in [6], 71.1%.
Turning to `COc1cc(O)c2c(=O)cc(-c3ccc(OC)c(OC)c3)oc2c1`, the result in test [7] and in [8] was Active. Also, the Activity in test [9] is 71.3%; in [10], 13%; in test [5], 65%; in test [6] it was 45.8%. In addition, the IC50 was 15 µM in [1], 105 µM in [2], 125 µM in test [3] and 10 µM in test [4].
For `COc1ccc(-c2cc(=O)c3cc(OC)c(O)c(OC)c3o2)cc1OC`, the result in test [8] was Active. The Activity in test [9] was 73.4%; in [10] it was 15.6%; in test [5], 55%; in [6], 52.7%. Further, the IC50 in [1] stood at 20 µM; in test [2] it was 115 µM; in [3] it was 95 µM; in test [4], 15 µM.
With `COc1ccc(-c2cc(=O)c3c(O)c(OC)c(OC)c(O)c3o2)cc1OC`, the IC50 in test [1] turned out to be 45 µM; in test [2], 95 µM; in [3] it was 100 µM; in [4] it was 35 µM. Further, the values for the Activity in [5] and in test [6] were 15% and 78.3%, respectively.
Consider `COc1ccc(-c2cc(=O)c3c(O)c(OC)c(OC)c(OC)c3o2)cc1` [GARDENIN B], for which the IC50 in test [1] amounted to 40 µM; in [2] it was 75 µM; in test [3], 85 µM; in [4], 30 µM. In addition, the Activity amounted to 20% in test [5] and 75.4% in test [6].
As to `O=c1[nH]cc(F)c(=O)[nH]1` [FLUOROURACIL], the result in [11], in test [12] and in test [7] was Active. For the same molecule, the IC50 in [1] came to 10 µM; in test [2] it was 10 µM; in test [3], 8 µM.
Take `O=C1O[C@H]([C@@H](O)CO)C(O)=C1O`: the Activity in test [6] amounted to 80%.
On to `COc1cc(-c2cc(=O)c3cc(OC)c(OC)c(O)c3o2)cc(O)c1OC`, for which the 50% inhibitory concentration (IC50) is 30 µM in test [1], 105 µM in [2], 85 µM in test [3] and 25 µM in [4]. The results for the Activity in test [5] and in test [6] were 35% and 56.8%, respectively.
Take `COc1cc(-c2cc(=O)c3c(O)cc(OC)c(OC)c3o2)cc(OC)c1OC`: the IC50 stood at 25 µM in [1], 100 µM in test [2], 105 µM in [3] and 20 µM in test [4]. The Activity in test [5] came to 45%; in [6] it was 54.2%.
